Reference: patent publication US11014941B2, “Pyrrolopyrimidine derivatives useful as inhibitors of influenza virus replication” (priority 2017, dated 2021)

molecular target: Influenza PB2 (Influenza A virus, UniProt P03428); test: biochemical; type: binding; details: read-out: Influenza PB2 affinity, IC50
Sequence (P03428 whole entry, looked up): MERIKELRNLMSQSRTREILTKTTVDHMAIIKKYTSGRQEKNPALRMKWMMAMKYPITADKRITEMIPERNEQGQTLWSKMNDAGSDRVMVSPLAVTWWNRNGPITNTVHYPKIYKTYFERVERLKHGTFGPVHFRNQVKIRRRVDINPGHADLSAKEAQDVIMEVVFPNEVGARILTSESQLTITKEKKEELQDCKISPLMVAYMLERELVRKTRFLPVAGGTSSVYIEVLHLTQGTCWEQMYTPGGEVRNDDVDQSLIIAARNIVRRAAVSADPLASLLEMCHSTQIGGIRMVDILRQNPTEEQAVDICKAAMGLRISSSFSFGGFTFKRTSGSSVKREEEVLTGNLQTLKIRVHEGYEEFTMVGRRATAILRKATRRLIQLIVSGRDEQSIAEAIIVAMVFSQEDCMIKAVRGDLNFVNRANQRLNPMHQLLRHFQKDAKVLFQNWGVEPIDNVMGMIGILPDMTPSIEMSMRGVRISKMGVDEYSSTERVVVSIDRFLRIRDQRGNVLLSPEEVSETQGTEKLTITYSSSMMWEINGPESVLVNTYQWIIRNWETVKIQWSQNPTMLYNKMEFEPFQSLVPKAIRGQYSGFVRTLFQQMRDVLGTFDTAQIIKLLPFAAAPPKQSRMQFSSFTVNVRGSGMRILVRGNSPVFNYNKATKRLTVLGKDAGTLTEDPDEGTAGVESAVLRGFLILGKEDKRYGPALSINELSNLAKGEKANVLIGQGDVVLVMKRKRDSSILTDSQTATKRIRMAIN

Row | Structure (SMILES) | IC50 [µM]
1 | Cc1cn([C@@H]2C3CCC(CC3)[C@H]2C(=O)O)c2nc(-c3c[nH]c4ncc(F)cc34)ncc12 [Compound B163] | < 1
2 | CCOCCOCCCCC(=O)N[C@H]1CCC[C@@H](n2ccc3cnc(-c4c[nH]c5ncc(F)cc45)nc32)C1 [Compound B52] | > 100
3 | COC(=O)CCn1ccc2cnc(-c3c[nH]c4ncc(F)cc34)nc21 [Compound B3] | > 100
4 | CCOC(=O)C1=CCCCC1n1cc(F)c2cnc(-c3c[nH]c4ncc(Cl)cc34)nc21 (stereo not drawn) [Compound B98] | > 100
5 | O=C(O)[C@H]1C2CCC(CC2)C1n1ccc2cnc(-c3c[nH]c4ncc(F)cc34)nc21 (stereo partly drawn) [Compound B120] | < 1
6 | CNC(=O)C1=C(n2cc(F)c3cnc(-c4c[nH]c5ncc(Cl)cc45)nc32)C2CCC1CC2 [Compound B221] | 1 to 10
7 | CNC(=O)NCCn1cc(-c2c[nH]c3ncc(F)cc23)c2cncnc21 [Compound C14] | > 100
8 | O=C(O)CNC(=O)Cn1ccc2c(-c3c[nH]c4ncc(F)cc34)ncnc21 [Compound A6] | 10 to 100
9 | O=C(O)[C@H]1C2CCC(CC2)[C@@H]1n1cc(Cl)c2cnc(-c3c[nH]c4ncc(F)cc34)nc21 [Compound B127] | < 1
10 | COC(=O)[C@H](CO)NC(=O)Cn1ccc2c(-c3c[nH]c4ncc(F)cc34)ncnc21 [Compound A13] | > 100
11 | C[C@@]1(C(=O)O)CCCC[C@H]1n1cc(F)c2cnc(-c3c[nH]c4ncc(F)cc34)nc21 [Compound B89] | < 1
12 | O=C(O)[C@@H]1C2CCC(CC2)C1n1cc(-c2ccncc2)c2cnc(-c3c[nH]c4ncc(Cl)cc34)nc21 (single isomer, unassigned) [Compound B189] | 1 to 10
13 | O=C(O)[C@@H]1C2CCC(CC2)[C@H]1n1cc(C#CCC2CC2)c2cnc(-c3c[nH]c4ncc(F)cc34)nc21 [Compound B152] | 10 to 100
14 | O=C(O)[C@@H]1C2CCC(CC2)C1n1cc(Cl)c2cnc(-c3c[nH]c4ncc(Cl)cc34)nc21 (single isomer, unassigned) [Compound B137] | < 1
15 | O=C(Cn1ccc2c(-c3c[nH]c4ncc(F)cc34)ncnc21)N[C@@H](Cc1ccccc1)C(=O)O [Compound A11] | 10 to 100
16 | COC(=O)[C@@H]1C2CCC(CC2)[C@H]1n1cc(-c2ccn[nH]2)c2cnc(-c3c[nH]c4ncc(F)cc34)nc21 [Compound B173] | 1 to 10
17 | O=C(O)[C@@H]1C2CCC(CC2)C1n1cc(-c2ccncc2)c2cnc(-c3c[nH]c4ncc(Cl)cc34)nc21 (stereo partly drawn) [Compound B187] | 1 to 10
18 | CCOCCOCCCCC(=O)N[C@H]1CCC[C@@H](n2ccc3cnc(-c4c[nH]c5ncc(F)cc45)nc32)C1 (relative stereo) [Compound B100] | 10 to 100
19 | COC(=O)/C=C/n1ccc2cnc(-c3c[nH]c4ncc(F)cc34)nc21 [Compound B23] | 10 to 100
20 | CCOC(=O)[C@H]1C2CCC(CC2)[C@@H]1n1cc(F)c2cnc(-c3c[nH]c4ncc(Cl)cc34)nc21 [Compound B134] | > 100
21 | CC(=O)NCCn1cc(-c2c[nH]c3ncc(F)cc23)c2cncnc21 [Compound C12] | > 100
22 | O=C(O)c1cn([C@H]2C3CCC(CC3)[C@@H]2C(=O)O)c2nc(-c3c[nH]c4ncc(Cl)cc34)ncc12 [Compound B196] | 1 to 10
23 | CNC(=O)n1cc(-c2ncc3c(F)cn(CC4CCCCN4)c3n2)c2cc(F)cnc21 (stereo not drawn) [Compound B77] | 10 to 100
24 | O=C(O)[C@H]1C2CCC(CC2)C1n1cc(Cl)c2cnc(-c3c[nH]c4ncc(F)cc34)nc21 (single isomer, unassigned) [Compound B132] | < 1
